Consider 23 molecules from patent US20220162191A1, “SMALL MOLECULE MODULATORS OF IL-17” (LEO PHARMA A/S, priority 2019, published 2022).

Structures are written as SMILES.

The target in this test is T1, human IL-17AA (Homo sapiens, UniProt Q16552).
T1 construct: host or cells: HEK (human embryonic kidney) cells
T1 sequence (Q16552 24-155) 1: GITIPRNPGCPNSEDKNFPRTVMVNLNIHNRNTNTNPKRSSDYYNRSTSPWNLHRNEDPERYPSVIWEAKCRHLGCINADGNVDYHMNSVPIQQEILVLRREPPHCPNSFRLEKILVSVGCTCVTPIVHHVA
T1 sequence (Q16552 24-155) 2: T1 sequence (Q16552 24-155) 1
Kind of test: IL-8 release assay in human epithelial keratinocytes adult (HEKa). The format is cell-based. The note with it: 3 ng/ml human IL-17AA + 10 ng/ml human TNFalpha, 68-72 h, IL-8 by HTRF, read-out: Rel EC50 L-8 release assay. The procedure, abridged:
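Adult human keratinocytes in Epilife with HKGS minus hydrocortisone, treated with compound then stimulated with final 3 ng/ml HEK-derived human IL-17AA plus 10 ng/ml TNF-alpha for 68–72 h at 37 °C; TNF-alpha alone defines 100% inhibition. Secreted IL-8 by HTRF; relative IC50 and Emax from four-parameter fits.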
As for `COCOc1ccc(-c2ccc(Cl)c(CC(NC(=O)c3ccnn3C)C(=O)Nc3ccc(-c4nncn4C)cc3)c2)cc1C(=O)N1CCC1` (centres unmarked) [Example 156, N-[1-[[5-[3-(azetidine-1-carbonyl)-4-(methoxymethoxy)phenyl]-2-chloro-phenyl]methyl]-2-[4-(4-methyl-1,2,4-triazol-3-yl)anilino]-2-oxo-ethyl]-2-methyl-pyrazole-3-carboxamide], the concentration for a half-maximal effect (EC50) is more than 1000 nM.
Next, `Cc1ncn(C)c1-c1ccc(NC(=O)[C@H](Cc2cc(-c3ccnc(N4CCN(C)CC4)c3)ccc2Cl)NC(=O)OC2CC2)cc1` [Example 211, cyclopropyl N-[(1S)-1-[[2-chloro-5-[2-(4-methylpiperazin-1-yl)-4-pyridyl]phenyl]methyl]-2-[4-(3,5-dimethylimidazol-4-yl)anilino]-2-oxo-ethyl]carbamate]: 100 to 1000 nM.
In the case of `Cc1n[nH]cc1-c1ccc(NC(=O)[C@H](Cc2cc(-c3ccc(=O)n(C(C)C)c3)ccc2Cl)NC(=O)c2ccnn2C)cc1O` [Example 174, N-[(1S)-1-[[2-chloro-5-(1-isopropyl-6-oxo-3-pyridyl)phenyl]methyl]-2-[3-hydroxy-4-(3-methyl-1H-pyrazol-4-yl)anilino]-2-oxo-ethyl]-2-methyl-pyrazole-3-carboxamide], the EC50 is less than 100 nM.
Next, `Cn1cnnc1-c1ccc(NC(=O)[C@@H](NC(=O)C2(F)CC2)[C@@H]2CCCc3ccc(-c4ccnc(N5C[C@H]6C[C@@H]5CO6)c4)cc32)cc1` [Example 405, 1-fluoro-N-[(1S)-2-[4-(4-methyl-1,2,4-triazol-3-yl)anilino]-1-[(1R)-7-[2-[(1R,4R)-2-oxa-5-azabicyclo[2.2.1]heptan-5-yl]-4-pyridyl]tetralin-1-yl]-2-oxo-ethyl]cyclopropanecarboxamide]: more than 1000 nM; `Cc1nocc1C(=O)N[C@@H](Cc1cc(-c2ccnc(C(O)C3CC3)c2)ccc1Cl)C(=O)Nc1ccc(-c2cncn2C)cc1` (stereo partly drawn) [Example 123, N-[(1S)-1-[[2-chloro-5-[2-[cyclopropyl(hydroxy)methyl]-4-pyridyl]phenyl]methyl]-2-[4-(3-methylimidazol-4-yl)anilino]-2-oxo-ethyl]-3-methyl-isoxazole-4-carboxamide]: less than 100 nM.
On to `Cc1n[nH]c(C)c1-c1ccc(NC(=O)[C@@H](NC(=O)c2ccnn2C)[C@@H]2CCCc3ccc(-c4cccc(CN5CCC5)c4)cc32)cc1` [Example 388, N-[(1S)-1-[(1R)-7-[3-(azetidin-1-ylmethyl)phenyl]tetralin-1-yl]-2-[4-(3,5-dimethyl-1H-pyrazol-4-yl)anilino]-2-oxo-ethyl]-2-methyl-pyrazole-3-carboxamide], for which the EC50 is less than 100 nM.
Next, `Cc1n[nH]c(C)c1-c1ccc(NC(=O)[C@@H](NC(=O)C2(F)CC2)[C@@H]2CCc3ccc(-c4ccnc(N5CCNCC5)c4)cc32)cc1` [Example 9, N-[(1S)-2-[4-(3,5-dimethyl-1H-pyrazol-4-yl)anilino]-2-oxo-1-[(1R)-6-(2-piperazin-1-yl-4-pyridyl)indan-1-yl]ethyl]-1-fluoro-cyclopropanecarboxamide]: less than 100 nM; `Cc1n[nH]c(C)c1-c1ccc(NC(=O)[C@@H](NC(=O)C2(F)CC2)[C@@H]2CCc3ccc(-c4ccc(=O)n(C(C)C)c4)cc32)cc1` [Example 7, N-[(1S)-2-[4-(3,5-dimethyl-1H-pyrazol-4-yl)anilino]-1-[(1R)-6-(1-isopropyl-6-oxo-3-pyridyl)indan-1-yl]-2-oxo-ethyl]-1-fluoro-cyclopropanecarboxamide]: less than 100 nM; `Cc1n[nH]cc1-c1ccc(NC(=O)[C@H](Cc2cc(-c3ccc(=O)n(C(C)C)c3)ccc2Cl)NC(=O)C2(F)CC2)cc1` [Example 136, N-[(1S)-1-[[2-chloro-5-(1-isopropyl-6-oxo-3-pyridyl)phenyl]methyl]-2-[4-(3-methyl-1H-pyrazol-4-yl)anilino]-2-oxo-ethyl]-1-fluoro-cyclopropanecarboxamide]: 100 to 1000 nM.
For the molecule `Cc1ncn(C)c1-c1ccc(NC(=O)[C@H](Cc2cc(-c3ccc(=O)n(C(C)C)c3)ccc2Cl)NC(=O)OC2CC2)cc1` [Example 201, cyclopropyl N-[(1S)-1-[[2-chloro-5-(1-isopropyl-6-oxo-3-pyridyl)phenyl]methyl]-2-[4-(3,5-dimethylimidazol-4-yl)anilino]-2-oxo-ethyl]carbamate], the half-maximal effective concentration (EC50) lay in the range of 100 to 1000 nM.
To `Cc1n[nH]c(C)c1-c1ccc(NC(=O)[C@H](Cc2cc(-c3cccc(C(C)(C)O)c3)ccc2Cl)NC(=O)c2ccnn2C)cc1` [Example 58, N-[(1S)-1-[[2-chloro-5-[3-(1-hydroxy-1-methyl-ethyl)phenyl]phenyl]methyl]-2-[4-(3,5-dimethyl-1H-pyrazol-4-yl)anilino]-2-oxo-ethyl]-2-methyl-pyrazole-3-carboxamide] belongs less than 100 nM; to `Cc1n[nH]c(C)c1-c1ccc(NC(=O)[C@@H](NC(=O)c2ccnn2C)[C@@H]2CCCc3ccc(-c4ccc5c(c4)CNC5)cc32)cc1` [Example 35, N-[(1S)-2-[4-(3,5-dimethyl-1H-pyrazol-4-yl)anilino]-1-[(1R)-7-isoindolin-5-yltetralin-1-yl]-2-oxo-ethyl]-2-methyl-pyrazole-3-carboxamide], less than 100 nM.
As for `CC(C)n1cc(-c2ccc3c(c2)[C@H]([C@H](NC(=O)c2ccnn2C)C(=O)Nc2ccc(-c4cncn4C)c(O)c2)CCC3)ccc1=O` [Example 49, N-[(1S)-2-[3-hydroxy-4-(3-methylimidazol-4-yl)anilino]-1-[(1R)-7-(1-isopropyl-6-oxo-3-pyridyl)tetralin-1-yl]-2-oxo-ethyl]-2-methyl-pyrazole-3-carboxamide], the EC50 is less than 100 nM.
Consider `CCOc1cccc(-c2ccc(Cl)c(CC(NC(=O)c3ccnn3C)C(=O)Nc3ccc(-c4nncn4C)cc3)c2)c1` (centres unmarked) [Example 110, N-[1-[[2-chloro-5-(3-ethoxyphenyl)phenyl]methyl]-2-[4-(4-methyl-1,2,4-triazol-3-yl)anilino]-2-oxo-ethyl]-2-methyl-pyrazole-3-carboxamide], for which the EC50 fell in the range of 100 to 1000 nM.
With `Cc1nccn1-c1ccc(NC(=O)[C@@H](NC(=O)c2ccnn2C)[C@@H]2CCCc3ccc(-c4ccnc(N5C[C@@H]6C[C@H]5CO6)c4)cc32)cc1` [Example 402, 2-methyl-N-[(1S)-2-[4-(2-methylimidazol-1-yl)anilino]-1-[(1R)-7-[2-[(1S,4S)-2-oxa-5-azabicyclo[2.2.1]heptan-5-yl]-4-pyridyl]tetralin-1-yl]-2-oxo-ethyl]pyrazole-3-carboxamide], the EC50 is less than 100 nM.
On to `CC(C)n1cc(-c2cccc(C(c3ccccc3)C(NC(=O)OC3CC3)C(=O)Nc3ccc(-c4cncn4C)cc3)c2)ccc1=O` (single isomer, unassigned) [Example 231, Cyclopropyl N-[1-[[3-(1-isopropyl-6-oxo-3-pyridyl)phenyl]-phenyl-methyl]-2-[4-(3-methylimidazol-4-yl)anilino]-2-oxo-ethyl]carbamate], for which the concentration for a half-maximal effect (EC50) lay in the range of 100 to 1000 nM.
Take `Cc1nccn1-c1ccc(NC(=O)C(Cc2cc(-c3ccc(=O)n(C(C)C)c3)ccc2Cl)NC(=O)OC(C)(C)C)cc1` (centres unmarked) [Example 67, tert-butyl N-[1-[[2-chloro-5-(1-isopropyl-6-oxo-3-pyridyl)phenyl]methyl]-2-[4-(2-methylimidazol-1-yl)anilino]-2-oxo-ethyl]carbamate]: the concentration giving a half-maximal response (EC50) fell in the range of 100 to 1000 nM.
Next, `Cc1n[nH]c(C)c1-c1ccc(NC(=O)[C@@H](NC(=O)c2ccnn2C)[C@@H]2CCc3ccc(-c4ccc5c(c4)CN(C)C5)cc32)cc1` [Example 10, N-[(1S)-2-[4-(3,5-dimethyl-1H-pyrazol-4-yl)anilino]-1-[(1R)-6-(2-methylisoindolin-5-yl)indan-1-yl]-2-oxo-ethyl]-2-methyl-pyrazole-3-carboxamide]: less than 100 nM.
Next, `CNC1CN(c2cc(-c3ccc(Cl)c(CC(NC(=O)c4ccnn4C)C(=O)Nc4ccc(-c5cncn5C)cc4)c3)ccn2)C1` (centres unmarked) [Example 196, N-[1-[[2-chloro-5-[2-[3-(methylamino)azetidin-1-yl]-4-pyridyl]phenyl]methyl]-2-[4-(3-methylimidazol-4-yl)anilino]-2-oxo-ethyl]-2-methyl-pyrazole-3-carboxamide]: 100 to 1000 nM.
Next, `Cn1cncc1-c1ccc(NC(=O)C(Cc2cc(-c3ccnc(N4CC(CO)C4)c3)ccc2Cl)NC(=O)c2ccnn2C)cc1` (centres unmarked) [Example 190, N-[1-[[2-chloro-5-[2-[3-(hydroxymethyl)azetidin-1-yl]-4-pyridyl]phenyl]methyl]-2-[4-(3-methylimidazol-4-yl)anilino]-2-oxo-ethyl]-2-methyl-pyrazole-3-carboxamide]: 100 to 1000 nM; `Cc1nccn1-c1ccc(NC(=O)[C@H](Cc2cc(-c3ccnc(C(O)C4CC4)c3)ccc2Cl)NC(=O)C2(F)CC2)cc1` (stereo partly drawn) [Example 126, N-[(1S)-1-[[2-chloro-5-[2-[cyclopropyl(hydroxy)methyl]-4-pyridyl]phenyl]methyl]-2-[4-(2-methylimidazol-1-yl)anilino]-2-oxo-ethyl]-1-fluoro-cyclopropanecarboxamide]: 100 to 1000 nM.
Regarding `CC(C)n1cc(-c2ccc(Cl)c(C[C@H](NC(=O)C3CC3(C)C)C(=O)Nc3ccc(-c4nncn4C)cc3)c2)ccc1=O` (stereo partly drawn) [Example 154, N-[(1S)-1-[[2-chloro-5-(1-isopropyl-6-oxo-3-pyridyl)phenyl]methyl]-2-[4-(4-methyl-1,2,4-triazol-3-yl)anilino]-2-oxo-ethyl]-2,2-dimethyl-cyclopropanecarboxamide], the EC50 is more than 1000 nM.
To `Cc1n[nH]c(C)c1-c1ccc(NC(=O)[C@@H](NC(=O)c2ccnn2C)[C@@H]2CCc3ccc(-c4cnn(C(C)(C)CN)c4)cc32)cc1` [Example 22, N-[(1S)-1-[(1R)-6-[1-(2-amino-1,1-dimethyl-ethyl)pyrazol-4-yl]indan-1-yl]-2-[4-(3,5-dimethyl-1H-pyrazol-4-yl)anilino]-2-oxo-ethyl]-2-methyl-pyrazole-3-carboxamide] belongs 100 to 1000 nM.
